Experimental data: US9145425B2, “Cephem compound having catechol group” (SHIONOGI & CO., LTD., priority 2010, dated 2015)
Values after ≈ are worked out from the molar mass of the structure shown. Where a name gives a salt, the structure may show the parent alone. Read-outs that look alike come from different tables or passages of the source.

Assays:
[1] = test system: P. aeruginosa SR27001 (multi-resistant Pseudomonas aeruginosa; IMP-1 producing strain); experiment: Antimicrobial activity in vitro (MIC) of the in vivo test compounds; type: cell-based; conditions: addition of Tf
Description: (§1) Measurement of Minimum Inhibitory Concentration (MIC, μg/ml) was conducted according to the standard method of the Japan Society for Chemotherapy and the amount of bacteria for inoculation was 1000 cfu/spot, and sensitive disc medium was used as the test medium, and conducted using agar plate incubation.
The antimicrobial activity in vitro (MIC) of the test compounds was determined according to the method of Experimental Example 1.

[2] = test system: P. aeruginosa SR27001 (multi-resistant Pseudomonas aeruginosa; IMP-1 producing strain); experiment: Antimicrobial activity in vivo, mouse intraperitoneal infection, ED50 from survival rate; conditions: Mice (ICR type, male, 5 weeks), intravenous administration in twice from 1.5 h after infection, survival rate after 7 days
Description: The antimicrobial activity in vivo of the present compound (I) was determined.
Mice (ICR type, male, 5 weeks) were inoculated intraperitoneally with P. aeruginosa SR27001 (multi-resistant Pseudomonas aeruginosa; IMP-1 producing strain) to raise infection. One and half hours after, mice were treated with intravenious administration in twice, and then the ED50 value was calculated based on the survival rate after 7 days.

[3] = test system: Stenotrophomonas maltophilia SR21970; experiment: Minimum Inhibitory Concentration (MIC), agar plate incubation, CLSI method; type: cell-based
Description: (§2) The antimicrobial activity in vitro of the present compound (I) was determined.
Measurement of Minimum Inhibitory Concentration (MIC, μg/ml) was conducted according to the CLSI (Clinical and Laboratory Standards Institute) and the amount of bacteria for inoculation was 10000 cfu/spot, and Mueller-Hinton agar medium was used as the test medium, and conducted using agar plate incubation.
(§3) In the tables, the unit of the values of inhibitory activity is μg/ml.

[4] = test system: Klebsiella pneumoniae ATCC 700603; experiment: Minimum Inhibitory Concentration (MIC), agar plate incubation, Japan Society for Chemotherapy standard method; type: cell-based
Description: as §2, §1, §3

[5] = test system: Pseudomonas aeruginosa SR24; experiment: as above; type: cell-based
Description: as §2, §1, §3

[6] = test system: Acinetobacter baumannii SR24396; experiment: as above; type: cell-based
Description: as §2, §1, §3

[7] = test system: Pseudomonas aeruginosa SR27060; experiment: as above; type: cell-based
Description: as §2, §1, §3

[8] = Pseudomonas aeruginosa, read-out: MIC
[9] = Pseudomonas aeruginosa, read-out: ED50
[10] = Stenotrophomonas maltophilia SR21970, L-1, MBL producer strain (carbapenem resistant strain), 10000 cfu/spot, Mueller-Hinton agar medium
[11] = Klebsiella pneumoniae ATCC 700603, SHV-18, ESBL producer strain, 1000 cfu/spot, sensitive disc medium
[12] = Pseudomonas aeruginosa SR24, no enzyme, ceftazidime sensitive strain, 1000 cfu/spot, sensitive disc medium
[13] = Acinetobacter baumannii SR24396, no enzyme, 1000 cfu/spot, sensitive disc medium
[14] = Pseudomonas aeruginosa SR27060, IMP-1, MBL producer strain (carbapenem resistant strain), 1000 cfu/spot, sensitive disc medium
[15] = Stenotrophomonas maltophilia, SR21970, read-out: Minimum Inhibitory Concentration (MIC)
[16] = Klebsiella pneumoniae, ATCC700603, read-out: Minimum Inhibitory Concentration (MIC)
[17] = Pseudomonas aeruginosa, SR24, read-out: Minimum Inhibitory Concentration (MIC)
[18] = Acinetobacter baumannii, SR24396, read-out: Minimum Inhibitory Concentration (MIC)
[19] = Pseudomonas aeruginosa, SR27060, read-out: Minimum Inhibitory Concentration (MIC)
[20] = Stenotrophomonas maltophilia SR21970, L-1, MBL producer strain (carbapenem resistant strain), 10000 cfu/spot, Mueller-Hinton agar medium, read-out: Minimum Inhibitory Concentration (MIC)
[21] = ATCC700603, Klebsiella pneumoniae ATCC 700603, SHV-18, ESBL producer strain, 1000 cfu/spot, sensitive disc medium, read-out: Minimum Inhibitory Concentration (MIC)
[22] = Pseudomonas aeruginosa SR24, no enzyme, ceftazidime sensitive strain, 1000 cfu/spot, sensitive disc medium, read-out: Minimum Inhibitory Concentration (MIC)
[23] = Acinetobacter baumannii SR24396, no enzyme, 1000 cfu/spot, sensitive disc medium, read-out: Minimum Inhibitory Concentration (MIC)
[24] = Pseudomonas aeruginosa SR27060, IMP-1, MBL producer strain (carbapenem resistant strain), 1000 cfu/spot, sensitive disc medium, read-out: Minimum Inhibitory Concentration (MIC)

For `CO/N=C(\C(=O)N[C@@H]1C(=O)N2C(C(=O)[O-])=C(C[N+]3(C)CCCC3)CS[C@H]12)c1csc(N)n1` [CFPM, cefepime hydrochloride hydrate, reference compound], the MIC [1, 8] was > 64 mg/L and the ED50 [2, 9] was > 100 mg/kg.
For `C[C@H](O/N=C(\C(=O)N[C@@H]1C(=O)N2C(C(=O)[O-])=C(C[N+]34CCC[C@H]3CN(C(=O)c3ccc(O)c(O)c3Cl)CC4)CS[C@H]12)c1csc(N)n1)C(=O)[O-].[Na+]` (stereo partly shown) [Compound I-13], the MIC [1, 8] was 1 mg/L and the ED50 [2, 9] was 4.22 mg/kg.
With `CC(C)(ON=C(C(=O)NC1C(=O)N2C(C(=O)[O-])=C(C[N+](C)(C)C3CCN(C(=O)c4ccc(O)c(O)c4Cl)C3)CSC12)c1csc(N)n1)C(=O)[O-].[Na+]` (stereo not shown) [Compound I-20] the MIC [1] was 2 mg/L and the ED50 [2] was 5.48 mg/kg.
In the case of `CCC(ON=C(C(=O)NC1C(=O)N2C(C(=O)[O-])=C(C[N+]34CCC(CC3)N(C(=O)c3ccc(O)c(O)c3Cl)CC4)CSC12)c1csc(N)n1)C(=O)[O-].[Na+]` (stereo not shown) [Compound I-25], the “Minimum Inhibitory Concentration (MIC)” value [3, 10] is reported as 1 mg/L, the MIC [1] is reported as 1 mg/L and the ED50 [2] is reported as 3.34 mg/kg. For the same compound, the “Minimum Inhibitory Concentration (MIC)” value [4, 11] was 0.25 mg/L, the “Minimum Inhibitory Concentration (MIC)” value [5, 12] was 0.125 mg/L and the “Minimum Inhibitory Concentration (MIC)” value [6, 13] was 0.125 mg/L. For the same compound, the “Minimum Inhibitory Concentration (MIC)” value [7, 14] was 0.5 mg/L.
For `CC(C)(O/N=C(\C(=O)N[C@@H]1C(=O)N2C(C(=O)O)=C(C[N+]3(C)[C@@H]4CC[C@H]3C[C@@H](NC(=O)c3cc(O)c(O)c(Cl)c3)C4)CS[C@H]12)c1csc(N)n1)C(=O)[O-]` (stereo partly shown) [II-50], the MIC [3, 15] was 0.5 mg/L (≈ 0.642 µM), the MIC [4, 16] was 0.25 mg/L (≈ 0.321 µM) and the MIC [5, 17] was 0.125 mg/L (≈ 0.161 µM). For the same compound, the MIC [6, 18] was 0.25 mg/L (≈ 0.321 µM) and the MIC [7, 19] was 0.5 mg/L (≈ 0.642 µM).
With `C[N+]1(CC2=C(C(=O)[O-])N3C(=O)C(NC(=O)C(=NOC(CC(=O)O)C(=O)[O-])c4csc(N)n4)C3SC2)C2CCC1CC(NC(=O)c1cc(O)c(O)c(Cl)c1)C2.[Na+]` (stereo not shown) [II-51] the “Minimum Inhibitory Concentration (MIC)” value [3, 10] was 0.25 mg/L, the “Minimum Inhibitory Concentration (MIC)” value [4, 11] was 0.25 mg/L and the “Minimum Inhibitory Concentration (MIC)” value [5, 12] was 0.125 mg/L. For the same compound, the “Minimum Inhibitory Concentration (MIC)” value [6, 13] was 0.125 mg/L and the “Minimum Inhibitory Concentration (MIC)” value [7, 14] was 0.25 mg/L.
In the case of `Nc1nc(/C(=N/O[C@@H](CC(=O)[O-])C(=O)[O-])C(=O)N[C@@H]2C(=O)N3C(C(=O)[O-])=C(C[N+]45CCC[C@H]4CN(C(=O)c4cc(O)c(O)c(Cl)c4)CC5)CS[C@H]23)cs1.[Na+].[Na+]` (stereo partly shown) [II-57], the “Minimum Inhibitory Concentration (MIC)” value [3, 10] is reported as 0.5 mg/L, the “Minimum Inhibitory Concentration (MIC)” value [4, 11] is reported as 0.25 mg/L and the “Minimum Inhibitory Concentration (MIC)” value [5, 12] is reported as 0.063 mg/L. For the same compound, the “Minimum Inhibitory Concentration (MIC)” value [6, 13] was 0.063 mg/L and the “Minimum Inhibitory Concentration (MIC)” value [7, 14] was 0.5 mg/L.
`Nc1nc(C(=NOC(CC(=O)[O-])C(=O)[O-])C(=O)NC2C(=O)N3C(C(=O)[O-])=C(C[N+]45CCC(CNC(=O)c6ccc(O)c(O)c6Cl)(CC4)CC5)CSC23)cs1.[Na+].[Na+]` (stereo not shown) [II-58] was tested, and the “Minimum Inhibitory Concentration (MIC)” value [3, 10] was 0.5 mg/L, the “Minimum Inhibitory Concentration (MIC)” value [4, 11] was 0.5 mg/L and the “Minimum Inhibitory Concentration (MIC)” value [5, 12] was 0.25 mg/L. The “Minimum Inhibitory Concentration (MIC)” value [6, 13] was 0.125 mg/L and the “Minimum Inhibitory Concentration (MIC)” value [7, 14] was 0.5 mg/L.
In the case of `CC[C@H](O/N=C(\C(=O)N[C@@H]1C(=O)N2C(C(=O)O)=C(C[N+]34CCC(CNC(=O)c5ccc(O)c(O)c5Cl)(CC3)CC4)CS[C@H]12)c1csc(N)n1)C(=O)[O-]` [II-59], the MIC [3, 20] is reported as 1 mg/L (≈ 1.28 µM), the MIC [4, 21] is reported as 0.5 mg/L (≈ 0.642 µM) and the MIC [5, 22] is reported as 0.25 mg/L (≈ 0.321 µM). It also gave an MIC [6, 23] of 0.125 mg/L (≈ 0.161 µM) and an MIC [7, 24] of 0.5 mg/L (≈ 0.642 µM).
`CC(C)(O/N=C(\C(=O)N[C@@H]1C(=O)N2C(C(=O)O)=C(C[N+]3(C)[C@@H]4CC[C@H]3C[C@@H](NC(=O)c3ccc(O)c(O)c3Cl)C4)CS[C@H]12)c1nsc(N)n1)C(=O)[O-]` (stereo partly shown) [II-63] was tested, and the MIC [3, 20] was 0.5 mg/L (≈ 0.642 µM), the MIC [4, 21] was 1 mg/L (≈ 1.28 µM) and the MIC [5, 22] was 0.063 mg/L (≈ 0.0808 µM). For the same compound, the MIC [6, 23] was 0.125 mg/L (≈ 0.16 µM) and the MIC [7, 24] was 0.5 mg/L (≈ 0.642 µM).
In the case of `CC(C)[C@H](O/N=C(\C(=O)N[C@@H]1C(=O)N2C(C(=O)O)=C(C[N@+]3(C)[C@@H]4CC[C@H]3C[C@@H](NC(=O)c3ccc(O)c(O)c3Cl)C4)CS[C@H]12)c1csc(N)n1)C(=O)[O-]` [III-3], the MIC [3, 20] is reported as 0.5 mg/L (≈ 0.631 µM), the MIC [4, 21] is reported as 0.25 mg/L (≈ 0.316 µM) and the MIC [5, 22] is reported as 0.125 mg/L (≈ 0.158 µM). The MIC [6, 23] was 0.125 mg/L (≈ 0.158 µM) and the MIC [7, 24] was 0.5 mg/L (≈ 0.631 µM).
For `CC(C)(O/N=C(\C(=O)N[C@@H]1C(=O)N2C(C(=O)O)=C(C[N+]34CCCC3(CNC(=O)c3ccc(O)c(O)c3Cl)CCC4)CS[C@H]12)c1csc(N)n1)C(=O)[O-]` (stereo partly shown) [III-5], the MIC [3, 15] was 0.25 mg/L (≈ 0.321 µM), the MIC [4, 16] was 0.125 mg/L (≈ 0.161 µM) and the MIC [5, 17] was 0.125 mg/L (≈ 0.161 µM). For the same compound, the MIC [6, 18] was 0.25 mg/L (≈ 0.321 µM) and the MIC [7, 19] was 0.5 mg/L (≈ 0.642 µM).
For `C[N+]1(CC2=C(C(=O)[O-])N3C(=O)C(NC(=O)C(=NOC(CC(=O)O)C(=O)[O-])c4csc(N)n4)C3SC2)C2CCC1CC(NC(=O)c1ccc(O)c(O)c1C(F)(F)F)C2.[Na+]` (stereo not shown) [III-14], the “Minimum Inhibitory Concentration (MIC)” value [3, 10] was 0.25 mg/L, the “Minimum Inhibitory Concentration (MIC)” value [4, 11] was 0.5 mg/L and the “Minimum Inhibitory Concentration (MIC)” value [5, 12] was 0.25 mg/L. For the same compound, the “Minimum Inhibitory Concentration (MIC)” value [6, 13] was 0.125 mg/L and the “Minimum Inhibitory Concentration (MIC)” value [7, 14] was 0.5 mg/L.
